Experimental data as given in patent publication US9346957B2, “Cell permeable, fluorescent dye” (École Polytechnique Fédérale de Lausanne (EPFL), priority 2011, dated 2016).

Key:
SNAP-tag fusion proteins = assay: Live cell labeling of SNAP-tag fusion proteins, fluorescence imaging; format: cell-based; details: living mammalian cells, incubation with dye
Protocol: (§1) As a representative example for the labeling of a SNAP-tag fusion with BG-Sir650, the labeling and fluorescence imaging of SNAP-Cep41 (microtubule binding protein) fusion protein in U2OS cells is described. SNAP-Cep41 was expressed from episomal pEBTet plasmid encoding puromycin resistance under a doxycycline inducible promoter in U2OS cells. Prior to induction of expression, cells were selected by growing them in complete Dulbecco's Modified Eagle's Medium (DMEM) with 1 μg/ml puromycin for at least 1.5 weeks. SNAP-Cep41 fusion protein expression was induced for 48 h by adding to complete DMEM grow medium doxycycline at final concentration of 0.1 μg/ml before staining procedure. Living cells were stained by replacing old media with complete DMEM growth media containing 5 μM BG-SiR650, and incubated for 30 min at 37° C. in 5% CO2 incubator. Cells were washed two times with Hank's Buffered Salt Solution (HBSS) for 5 min and once with media for 1 h. Before imaging, growth media was replaced with HBSS. Images (FIG. 2A) were acquired on a confocal fluorescence microscope as z-stacks and presented as maximum intensity projections. For the imaging of fixed cells, living cells were labeled with 1 μM BG-Sir650 for 30 min at 37° C. […] Images (FIG. 2B) were acquired on a confocal fluorescence microscope as z-stack and presented as maximum intensity projections. […]

mammalian cells = assay: Membrane permeability, shown by incubating cells with the dye and fluorescence imaging; format: cell-based; details: simple incubation with the dye
Protocol: as §1

Q: `CN(C)c1ccc2c(c1)[Si](C)(C)C1=CC(=[N+](C)C)C=CC1=C2c1cc(C(=O)NCc2ccc(COc3nc(N)nc4[nH]cnc34)cc2)ccc1C(=O)[O-]` [SiR650-6BG] was tested. Which “specific labeling of SNAP-tag fusion proteins in living cells” value (SNAP-tag fusion proteins) did it give?
A: The value was “permits the specific labeling of SNAP-tag fusion proteins”.

Q: And the membrane permeability (mammalian cells)?
A: Its membrane permeability is “excellent membrane permeability”.
